Source: patent US10357486B2, “Treatment of cognitive impairment with PDE4 inhibitor” (Universiteit Maastricht, priority 2013, dated 2019)
“Also recorded” adds a separate entry of the source. Marks after values point to notes of the source that are not given here.

Assays:
[1] = test system: scopolamine induced memory deficit in male Wistar rats; test: Object recognition task (ORT), scopolamine induced memory deficit; type: in vivo; details: for d2 (discrimination index): 1 h retention, mean (SEM)
Excerpt: The objective of this study is to evaluate the efficacious dose range of roflumilast with regard to cognitive improvement effects by using scopolamine induced memory deficit on object memory performance in male Wistar rats. Memory acquisition processes are investigated using the object recognition test (ORT).
Maintenance of Animals: Sixteen 3-4 month old male Wistar rats (Charles River, Sulzfeld, Germany) were used for the study. All animals were housed individually in standard green line Tecniplast IVC cages on stardust bedding. The animals were housed on a reversed 12/12 h light/dark cycle (lights on from 07:00 pm to 07:00 am) and had free access to food and water. The rats were housed and tested in the same room. A radio, playing softly, provided background noise in the room. All testing was performed between 09:00 am and 06:00 pm.
Preparation of Compounds: Drugs were prepared daily, except as indicated otherwise. Roflumilast (Takeda, Konstanz, Germany, MW 403.21) was dissolved in 98% methylcellulose solution (0.5% methylcellulose) and 2% Tween 80. Roflumilast in doses of 0 (vehicle), 0.0001, 0.0003, 0.001, 0.003, 0.01 and 0.03 mg/kg was administered intraperitoneally (ip, injection volume 1 ml/kg). Scopolamine (in form of scopolamine hydrobromide) was dissolved in saline (0.9% NaCl). Scopolamine hydrobromide was administered intraperitoneally at a dose of 0.1 mg/kg (ip, injection volume 1 ml/kg). Scopolamine and roflumilast were administered 30 min before T1.
Object Recognition Task in Rats: The ORT was performed as described elsewhere (Ennaceur and Delaceur, 1988, Behav Brain Res, Vol 31, pp 47-59; Akkerman et al; 2012, Behav Brain Res, Vol 232, pp 335-347). The apparatus consisted of a circular arena, 83 cm in diameter. The back half of the 40 cm high wall was made of grey PVC and the front was made of transparent PVC. Fluorescent red tubes and a light bulb provided a constant illumination of about 20 lux on the floor of the apparatus. The light intensity was equal in the different parts of the apparatus.
Two objects were placed in symmetrical positions at the mid-line between the gray and transparent halves of the arena, about ten centimeters away from wall. Four different sets of objects were available: 1) a standard 1 L brown transparent glass bottle (diameter 10 cm, height 22 cm) filled with water, 2) a metal cube (10.0×5.0×7.5 cm) with two holes (diameter 1.9 cm), 3) a cone consisting of a gray PVC base (maximal diameter 18 cm) with a collar on top made of brass (total height 16 cm), and 4) an aluminium cube with a tapering top (13.0×8.0×8.0 cm). Objects were presented to the animals in a balanced manner to avoid object or place biases. Rats were unable to displace the objects.
A test session comprised two trials, each with durations of 3 min. During the learning trial (T1) the apparatus contains two identical objects (object al and a2). Rats were always introduced into the apparatus with their nose towards the transparent wall segment (i.e. facing outwards to the front of the arena). Subsequently, rats were put back in its home cage for a 1 h interval. After the retention interval, rats were put back into the arena for the […] (T2). In T2, the two objects from T1 were replaced by one identical copy (a3) and a different novel object (b). The times spent in exploring each object during T1 and T2 were recorded manually on a personal computer.
Exploration was defined in the following manner: directing the nose to the object at a distance of no more than 2 cm and/or touching the object with the nose. Sitting on the object was not considered as exploratory behavior. In order to avoid the presence of olfactory cues, the objects were thoroughly cleaned with a 70% ethanol solution before each trial.
Prior to compound testing, the animals were handled for 5 min on 2 consecutive days and allowed to explore the ORT arena, also for 5 min. […]

[2] = test system: xylazine/ketamine induced α2-adrenergic receptor-mediated anesthesia; test: xylazine/ketamine induced α2-adrenergic receptor-mediated anesthesia test (emetic potential); type: in vivo; details: dose of 3.0 mg/kg
Excerpt: Since emesis is a typical side-effect of phosphodiesterase 4 inhibitors the emetic potential of roflumilast and rolipram was investigated in parallel using the xylazine/ketamine induced α2-adrenergic receptor-mediated anesthesia test. The results confirmed that the two phosphodiesterase 4 inhibitors have different effects on emesis.

[3] = test system: healthy adults (18 to 35 years); test: Verbal Learning Task (VLT) in healthy adults, 18 to 35 years; type: in vivo, human
Excerpt: The objective of this proof-of-concept study was to validate Roflumilast as cognitive enhancer using a translational behavior (i.e., cognitive testing)—EEG (i.e., brain electrical activity) approach.
Verbal Learning Task Analysis_The study utilized Verbal Learning Task (VLT) to analyze the increased number of words remembered following roflumilast administration. The VLT consisted of displaying 30 monosyllable words on a computer screen for a period of 60 seconds. Immediately after the presentation of the words on the computer screen subjects were asked to report as many words as they could recall by memory. This process (presentation and recall) was repeated further two times. In addition, 45 min and 24 h after the last presentation, subjects were again asked to report as many words as they could recall by memory. The set of three recall trials was conducted 60 minutes following administration of the roflumilast therapy.
Statistical Data Analyses Human data was analyzed using IBM SPSS Statistics version 20. General Linear Models for repeated measures were applied with the placebo condition included as contrast. Statistical outcomes for Tests of Within-Subjects Effects and
Tests of Within-Subjects Contrasts were regarded for immediate and delayed free recall scores and for the summed immediate recall score (i.e. immediate 1+immediate 2+immediate 3). The factor Treatment (4 levels; placebo, roflumilast 100 mcg, roflumilast 300 mcg and roflumilast 1000 mcg) was included as a within subjects factor. For the analysis of the EEG data, the factor Channel (5 levels; Fz, FCz, Cz, CPz, and Pz) was included as a second within subjects factor. Peak and latency values of three memory related ERP's were analysed; i.e. P300, N400 and P600. In case of significant findings (p<0.05) post-hoc t-tests were performed to reveal which of the five midline electrodes contributed to the effect.

SMILES: O=C(Nc1c(Cl)cncc1Cl)c1ccc(OC(F)F)c(OCC2CC2)c1 [roflumilast, N-(3,5-dichloropyridin-4-yl)-3-cyclopropylmethoxy-4-difluoromethoxybenzamide]
- d2 value compared to the vehicle condition (post-hoc Bonferroni t-test) ([1]; 0.0001 mg/kg ip + scopolamine): significantly lower
- d2 value compared to the scopolamine condition (post-hoc Bonferroni t-test) ([1]; 0.003 mg/kg ip + scopolamine): significantly higher
- d2 value compared to the scopolamine condition (post-hoc Bonferroni t-test) ([1]; 0.01 mg/kg ip + scopolamine): significantly higher
- d2 value compared to the scopolamine condition (post-hoc Bonferroni t-test) ([1]; 0.03 mg/kg ip + scopolamine): significantly higher
- d2 (discrimination index) ([1]; roflumilast 0.0001 mg/kg ip + scopolamine 0.1 mg/kg ip): 0.05 (0.05)
- d2 (discrimination index) ([1]; roflumilast 0.0003 mg/kg ip + scopolamine 0.1 mg/kg ip): 0.16 (0.06) #
- d2 (discrimination index) ([1]; roflumilast 0.001 mg/kg ip + scopolamine 0.1 mg/kg ip): 0.27 (0.06) ###
- d2 (discrimination index) ([1]; roflumilast 0.003 mg/kg ip + scopolamine 0.1 mg/kg ip): 0.43 (0.06) ###
- d2 (discrimination index) ([1]; roflumilast 0.01 mg/kg ip + scopolamine 0.1 mg/kg ip): 0.34 (0.06) ###
- d2 (discrimination index) ([1]; roflumilast 0.03 mg/kg ip + scopolamine 0.1 mg/kg ip): 0.30 (0.07) ###
- effect on memory function in rats treated with scopolamine (ORT) ([1]; single ip dose 0.0001 mg/kg, 0.0001 mg/kg): No effect
- effect on memory function in rats treated with scopolamine (ORT) ([1]; single ip dose 0.0003 mg/kg, 0.0003 mg/kg): intermediate memory improvement; also recorded: increasingly less efficacy
- effect on memory function in rats treated with scopolamine (ORT) ([1]; single ip dose 0.001 mg/kg, 0.001 mg/kg): intermediate memory improvement; also recorded: increasingly less efficacy
- effect on memory function in rats treated with scopolamine (ORT) ([1]; single ip dose 0.003 mg/kg, 0.003 mg/kg): fully restore memory function
- effect on memory function in rats treated with scopolamine (ORT) ([1]; single ip dose 0.01 mg/kg): increasingly less efficacy
- effect on memory function in rats treated with scopolamine (ORT) ([1]; single ip dose 0.03 mg/kg): increasingly less efficacy
- emetic potential [2]: tendency towards emetic potential
- placebo-corrected fold-improvement in VLT ([3]; 100 mcg single dose, healthy volunteer study, 3rd trial): 1.12
- number of words on the 3rd trial of VLT ([3]; 100 mcg single dose, young volunteers, placebo 21.25): 23.7 words
- improvement in number of correct words recalled in VLT (average) ([3]; single oral dose of 100 mcg, after the third trial): 2.5 words
